In US20070088033A1, “Diaryl Substituted Pyridinones” (priority 2002, published 2007):
Where “and” joins values, the source holds several entries; their conditions need not be identical. Identical values can stand only once.

What follows are molecules tested against T1, human p38 kinase alpha (Homo sapiens, UniProt Q16539) (assay: p38 kinase in vitro assay). Conditions: Table I; average of n trials, n=1 if not reported; read-out: p38 Alpha IC50.
T1 construct: The coding region of the human p38 cDNA was obtained by PCR-amplification from RNA isolated from the human monocyte cell line THP.1; GST (N); made in house; host or cells: E. coli DH10B
T1 sequence (Q16539 whole entry): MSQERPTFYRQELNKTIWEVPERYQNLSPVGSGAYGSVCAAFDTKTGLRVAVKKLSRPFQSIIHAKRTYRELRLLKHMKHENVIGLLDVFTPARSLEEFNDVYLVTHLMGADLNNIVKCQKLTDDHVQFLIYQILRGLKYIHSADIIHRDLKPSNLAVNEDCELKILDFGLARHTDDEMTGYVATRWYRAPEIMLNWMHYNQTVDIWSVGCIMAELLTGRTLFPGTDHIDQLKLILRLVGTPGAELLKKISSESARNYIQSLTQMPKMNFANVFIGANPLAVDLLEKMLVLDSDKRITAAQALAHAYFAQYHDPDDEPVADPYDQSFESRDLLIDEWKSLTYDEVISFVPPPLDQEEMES
Format: biochemical
Experimental: The ability of compounds to inhibit human p38 kinase alpha was evaluated using two in vitro assay methods. In the first method, activated human p38 kinase alpha phosphorylates a biotinylated substrate, PHAS-I (phosphorylated heat and acid stable protein-insulin inducible), in the presence of gamma ^32p-ATP (^32P-ATP). PHAS-I was biotinylated prior to the assay and provides a means of capturing the substrate, which is phosphorylated during the assay. p38 Kinase was activated by MKK6. Compounds were tested in 10 fold serial dilutions over the range of 100 μM to 0,001 μM using 1% DMSO. Each concentration of inhibitor was tested in triplicate.
All reactions were carried out in 96 well polypropylene plates. Each reaction well contained 25 mM HEPES pH 7.5, 10 mM magnesium acetate and 50 μM unlabeled ATP. […] Activated human p38 kinase alpha was used at 1 μg per 50 μl reaction volume representing a final concentration of 0.3 μM. Gamma ^32P-ATP was used to follow the phosphorylation of PHAS-I. ^32P-ATP has a specific activity of 3000 Ci/mmol and was used at 1.2 μCi per 50 μl reaction volume. The reaction proceeded either for one hour or overnight at 30° C.
Following incubation, 20 μl of reaction mixture was transferred to a high capacity streptavidin coated filter plate (SAM-streptavidin-matrix, Promega) prewetted with phosphate buffered saline, The transferred reaction mix was allowed to contact the streptavidin membrane of the Promega plate for 1-2 minutes. […] Filter plates were air-dried and 20 μl of scintillant was added. The plates were sealed and counted.
A second assay format was also employed that is based on p38 kinase alpha induced phosphorylation of EGFRP (epidermal growth factor receptor peptide, a 21 mer) in the presence ^33P-ATP. Compounds were tested in 10 fold serial dilutions over the range of 100 μM to 0.001 μM in 1% DMSO. Each concentration of inhibitor was tested in triplicate. Compounds were evaluated in 50 μl reaction volumes in the presence of 25 mM Hepes pH 7.5, 10 mM magnesium acetate, 4% glycerol, 0.4% bovine serum albumin, 0.4 mM DTT, 50 μM unlabeled ATP, 25 μg EGFRP (200 μM), and 0.05 μCi ^33p-ATP. Reactions were initiated by addition of 0.09 μg of activated, purified human GST-p38 kinase alpha. Activation was carried out using GST-MKK6 (5:1,p38:MKK6) for one hour at 30° C. in the presence of 50 μM ATP. Following incubation for 60 minutes at room temperature, the reaction was stopped by addition of 150 μl of AG 1×8 resin in 900 mM sodium formate buffer, pH 3.0 (1 volume resin to 2 volumes buffer). The mixture was mixed three times with pipetting and the resin was allowed to settle. A total of 50 μl of clarified solution head volume was transferred from the reaction wells to Microlite-2 plates. 150 μl of Microscint 40 was then added to each well of the Microlite plate, and the plate was sealed, mixed, and counted.

SMILES | IC50 [µM]
COC(=O)c1ccc(Cn2ccc(OCc3ccccc3)c(Br)c2=O)cc1 [Z] | 0.507
Cc1cc(OCc2ccc(F)cc2F)c(Br)c(=O)n1-c1c(Cl)cccc1Cl [G] | 0.179
O=C(O)c1ccc(Cn2ccc(OCc3ccccc3)c(Br)c2=O)cc1 [T] | 0.423
Cc1ccc(Cn2ccc(OCc3ccccc3)c(Br)c2=O)cc1 [Q] | 0.365
N#Cc1ccc(Cn2ccc(OCc3ccc(F)cc3)c(Br)c2=O)cc1 [GG] | 0.785
Cc1cc(OCc2ccc(F)cc2F)c(Br)c(=O)n1Cc1ccncc1 [I] | 0.21
Cc1cc(OCc2ccccc2)c(Br)c(=O)n1-c1c(Cl)cccc1Cl [DD] | 0.554
Cc1cccc(C)c1-n1c(C)cc(OCc2ccc(F)cc2)c(Br)c1=O [V] | 0.455
O=c1c(Br)c(OCc2ccc(F)cc2)ccn1Cc1cccc(F)c1 [BB] | 0.632
Cc1cc(OCc2ccc(F)cc2F)c(Br)c(=O)n1Cc1cccnc1 [F] | 0.132
O=c1c(Br)c(OCc2ccc(F)cc2F)ccn1Cc1ccccc1F [M] | 0.36
O=c1c(Br)c(OCc2ccc(F)cc2)ccn1Cc1ccncc1 [EE] | 0.572
O=c1c(Br)c(OCc2ccc(F)cc2)ccn1Cc1cccnc1 [II] | 0.873
N#Cc1ccc(Cn2ccc(OCc3ccccc3)c(Br)c2=O)cc1 [CC] | 0.536
O=c1c(Br)c(OCc2ccc(F)cc2F)ccn1Cc1ccc(F)cc1F [JJ] | 0.85
O=c1c(Br)c(OCc2cccc(Cl)c2)ccn1Cc1cccc(F)c1 [AA] | 0.691
N/C(=N/O)c1ccc(Cn2ccc(OCc3ccccc3)c(Br)c2=O)cc1 [Y] | 0.489
O=c1c(Br)c(OCc2ccccc2)ccn1Cc1ccc(Br)cc1 [FF] | 0.581
O=c1c(Br)c(OCc2ccccc2)ccn1Cc1ccccc1F [U] | 0.427
O=c1c(I)c(OCc2ccc(F)cc2)ccn1Cc1cccc(F)c1 [HH] | 0.746
Cc1cc(OCc2ccccc2)c(Br)c(=O)n1Cc1ccccc1 [K] | 0.219
O=c1c(Br)c(OCc2ccccc2)ccn1Cc1cccc(F)c1 [J] | 0.7
O=c1c(Br)c(OCc2ccc(F)cc2)ccn1Cc1ccc(F)cc1 [B] | 0.403
COc1cccc(Cn2ccc(OCc3ccc(F)cc3F)c(Br)c2=O)c1 [Example S] | 0.498
COc1cccc(C)c1-n1c(C)cc(OCc2ccc(F)cc2F)c(Br)c1=O [L] | 0.294
Cc1cccc(C)c1-n1c(C)cc(OCc2ccc(F)cc2F)c(Br)c1=O [C] | 0.0646
Cc1cccc(COc2ccn(Cc3cccc(F)c3)c(=O)c2Br)c1 [H] | 0.26
O=c1c(Br)c(OCc2ccccc2)ccn1Cc1ccc(Cl)cc1 [R] | 0.398

Same assay, conditions: Table II; several values in a cell = repeat determinations; read-out: p38A

SMILES | IC50
COc1ccc(Cn2ccc(OCc3ccc(Cl)cc3)c(Br)c2=O)cc1 [QQ] | 2.41 µM
O=c1c(Br)c(OCc2ccc(F)cc2)ccn1Cc1ccc(F)cc1 [SS] | 1.25 µM and 0.921 µM
O=c1cc(OCc2ccccc2)ccn1Cc1ccccc1 [EEEE] | 26.4 µM and 59.2 µM and 49 µM
O=c1c(Br)c(OCc2ccc(Cl)cc2)ccn1CCc1ccccc1 [DDD] | 6.63 µM
O=c1c(Br)c(OCc2ccccc2)ccn1Cc1ccc(C(F)(F)F)cc1 [MMM] | 1.53 µM
Cc1c(Br)c(OCc2ccccc2)c(Br)c(=O)n1Cc1ccccc1 [FFF] | 41.6 µM
O=c1c(Br)c(OCc2ccc(Cl)cc2)ccn1Cc1cccc(Cl)c1 [RR] | 6.8 µM
Cc1cc(OCc2cccc(Cl)c2)c(Br)c(=O)n1Cc1ccccc1 [CCC] | 1.6 µM
Cn1ccc(OCc2ccccc2)c(Br)c1=O [GGG] | 13.2 µM
O=c1cc(OCc2cccc(Cl)c2)ccn1Cc1ccccc1 [XXX] | 51.5 µM
O=c1c(Br)c(OCc2ccccc2)ccn1Cc1ccc(OC(F)(F)F)cc1 [DDDD] | 2.51 µM
Cc1cc(OCc2ccccc2)cc(=O)n1Cc1ccccc1 [OOOO] | 38.7 µM
Cn1ccc(OCc2ccccc2)c(Br)c1=O [EEE] | 11.5 µM
CCn1ccc(OCc2ccccc2)c(Br)c1=O [AAA] | 1.99 µM
O=c1c(Br)c(OCc2ccc(Cl)cc2)ccn1Cc1ccc(F)cc1 [PP] | 1.9 µM
O=c1c(Br)c(OCc2ccccc2Cl)ccn1Cc1ccccc1 [NN] | 2.03 µM
O=c1cc(OCc2ccccc2)ccn1Cc1ccc(F)cc1 [NNNN] | 64.8 µM

SMILES | IC50
O=c1c(Br)c(OCc2ccc(Cl)cc2)ccn1CCSc1ccccc1 [RRR] | 56.5 µM
CC(C)(C)c1ccc(Cn2ccc(OCc3ccccc3)c(Br)c2=O)cc1 [ZZ] | 3.67 µM
O=c1cc(OCc2ccccc2Cl)ccn1Cc1ccccc1 [WWW] | 81.8 µM
O=c1c(Br)c(OCc2c(Cl)cccc2Cl)ccn1Cc1ccccc1 [VV] | 14.3 µM
Cc1c(OCc2ccccc2)ccn(Cc2ccccc2)c1=O [JJJ] | 7.99 µM and 3.46 µM
O=c1c(Br)c(SCc2ccccc2)ccn1Cc1ccccc1 [BBBB] | 3.6 µM
O=c1c(Br)c(OCc2ccccc2)ccn1Cc1ccc(OCc2ccccc2)cc1 [TT] | 1.45 µM
O=c1c(Br)c(OCc2ccc(Cl)cc2)ccn1Cc1ccc(Cl)cc1 [OO] | 2.46 µM
Cc1ccc(COc2ccn(Cc3ccccc3)c(=O)c2Br)cc1 [LL] | 1.73 µM
O=c1c(Br)c(OCc2ccccc2C(F)(F)F)ccn1Cc1ccccc1 [CCCC] | 77.6 µM
O=c1c(Br)c(OCc2ccccc2)ccn1CCc1cccs1 [YYY] | 2.23 µM
O=c1c(CO)c(OCc2ccccc2)ccn1Cc1ccccc1 [NNN] | 24.9 µM
O=c1c(Br)c(OCc2ccc(F)cc2)ccn1CCCc1ccccc1 [HHH] | 18 µM
O=c1c(Br)c(OCc2ccccc2)ccn1Cc1cccc(C(F)(F)F)c1 [SSS] | 9.86 µM
O=c1c(Br)c(OCc2ccccc2)ccn1CC1CCNCC1 [III] | 90.9 µM
O=c1cc(OCc2ccccc2)ccn1Cc1ccc(Cl)cc1 [GGGG] | 31.9 µM
Cc1cc(OCc2ccccc2)c(Br)c(=O)n1Cc1ccccc1 [XX] | 0.219 µM

Same assay, conditions: Table III; n = number of times assayed, n=1 if not reported; read-out: p38 Alpha IC50

SMILES | IC50 [µM]
O=c1c(Br)c(OCc2ccccc2)ccn1Cc1ccc(F)nc1 [RRRRR] | 1.85
O=c1c(Br)c(OCc2ccccc2)ccn1Cc1ccc(OCc2ccccc2)cc1 [KKKKK] | 1.45
O=c1c(Br)c(OCc2ccc(F)cc2F)ccn1Cc1cccnc1 [XXXX] | 0.282
Cc1cc(OCc2ccc(F)cc2F)c(Br)c(=O)n1Cc1ccncc1 [VVVV] | 0.183
Cc1cccc(C)c1-n1c(C)cc(OCc2c(F)cccc2F)c(Br)c1=O [QQQQ] | 0.199
O=c1c(I)c(OCc2ccccc2)ccn1Cc1cccc(F)c1 [PPPPP] | 1.76
COc1ccc(Cn2ccc(OCc3ccc(F)cc3)c(Br)c2=O)cc1 [GGGGG] | 1.04
O=c1c(Br)c(OCc2ccc(F)cc2)ccn1Cc1cccc(Cl)c1 [IIIII] | 1.14
Cc1ccccc1COc1ccn(Cc2cccc(F)c2)c(=O)c1Br [NNNNN] | 1.69
Cc1cccc(C)c1-n1c(C)cc(OCc2c(F)cc(F)cc2F)c(Br)c1=O [PPPP] | 0.097
Cc1cc(OCc2c(F)cc(F)cc2F)c(Br)c(=O)n1Cc1ccncc1 [UUUU] | 0.192
Cc1cc(OCc2c(F)cccc2F)c(Br)c(=O)n1Cc1ccncc1 [EEEEE] | 0.684
Cc1ccc(COc2ccn(Cc3ccccc3)c(=O)c2Br)cc1 [QQQQQ] | 1.73
Cc1cc(OCc2c(F)cccc2F)c(Br)c(=O)n1-c1c(Cl)cccc1Cl [YYYY] | 0.339
O=c1c(Br)c(OCc2cccc(Cl)c2)ccn1Cc1cccc(F)c1 [DDDDD] | 0.691
Cc1cccc(C)c1-n1ccc(OCc2ccc(F)cc2)c(Br)c1=O [BBBBB] | 0.455
O=c1c(Br)c(OCc2ccc(F)cc2)ccn1CC1CC1 [JJJJJ] | 1.55
O=c1c(Br)c(OCc2ccccc2)ccn1Cc1ccc(C(F)(F)F)cc1 [MMMMM] | 1.53
O=c1c(Cl)c(OCc2ccc(F)cc2)ccn1Cc1ccc(F)cc1 [FFFFF] | 1.08
NCc1cccc(Cn2ccc(OCc3ccc(F)cc3)c(Br)c2=O)c1 [TTTT] | 0.175
Cc1cccc(COc2ccn(Cc3cccc(F)c3)c(=O)c2Br)c1 [WWWW] | 0.26
CCn1ccc(OCc2ccccc2)c(Br)c1=O [SSSSS] | 1.99
Cc1cc(OCc2ccc(F)cc2F)c(Br)c(=O)n1Cc1cccnc1 [RRRR] | 0.132
